# Measurements from US20080306047A1, “Use of Aza-Phenylalanine Compounds For Treating Cardiac Arrhythmia” (priority 2005, published 2008).
# Key:
# isolated rat hearts [1] = assay: Reperfusion-induced arrhythmia in isolated rat hearts (Langendorff) subjected to 40-min global ischemia; set-up: species or system Wistar rats; conditions: 40-min ischemia, 50 min reperfusion, drug 1 μM in K-H solution, mean ± SEM
# Method: Wistar rats (230-330 g) are anaesthetized by intraperitoneal injection of urethane (0.7 ml 20% w/v solution/100 g body weight), followed by intraperitoneal injection of heparin (2500 IU/rat). Having opened the thorax a cannula filled with cold Krebs-Henseleit (K-H) solution is inserted into the ascending aorta. After that the heart is excised, it is connected to Langendorff's apparatus and perfused with K-H solution (K-H solution, in mM: 118.6 NaCl; 4.7 KCl; 11.1 glucose; 25 NaHCO3; 1.66 MgSO4; 1.2 NaH2PO4, 2.52 […]; pH=7.4) under constant pressure (60 cm H2O). Prior to use, the K-H perfusion solution is passed through a cellulose acetate filter (pore size 5 μm) to remove any particulate impurities. The perfusion solution is kept at 38.5° C. and gassed with 95% O2 and 5% CO2. Two silver (AgCl) electrodes are set on the surface of the heart in the direction of electrical axis of the heart for recording electrocardiogram. Electrodes are placed on the heart in such a position that a sufficient amplitude of P wave and QRS complex is obtained. The following experimental groups are studied: 1) isolated hearts are perfused with oxygenated K-H solution for 30 min followed by 40 min of global ischemia and followed by 50 min of reperfusion with oxygenated K-H solution; 2) isolated hearts are perfused with oxygenated K-H solution for 20 min, followed by 10 min perfusion with experimental drug dissolved in K-H and then the hearts are exposed to 40 min of global ischemia followed by 50 min reperfusion with experimental drug dissolved in K-H. The used experimental drugs are compounds of formulae IV, V and VI as defined above. As a positive control direct thrombin inhibitor argatroban and low molecular weight heparin nadroparin are used. The hearts are monitored for the duration of proarrhythmic events according to the Lambeth convention (Walker et al., Cardiovascular Res 1988; 22: 447-455). Lactate dehydrogenase (LDH) release rate is determined spectophotometrically (Wroblevski & LaDue, Proc Exp Biol Med 1955; 90: 210-213) in the coronary effluent and is expressed in μkat per minute and per weight of the heart (Grasic Kuhar et al. Eur J Pharmacol 2004; 488: 137-46).
# isolated rat hearts [2] = assay: Reperfusion-induced arrhythmia in isolated rat hearts (Langendorff), 25-min global no-flow ischemia, 30 min reperfusion; set-up: species or system Wistar rats; conditions: 1 μM and 10 μM (+DMSO 500 μL/L), n=12
# Method: Hearts from male Wistar rats (300-370 g) anesthetized with diethyl-ether inhalation were perfused with Krebs-Henseleit buffer at 37° C. gassed with carbogen in Langendorff mode as described (Onody A et al., Cardiovasc Res. 2003, 58: 663-670). After an initial 15 min aerobic, normothermic perfusion period, hearts are subjected to 25-min of global, no-flow, normothermic ischemia, followed by 30 min normoxic, normothermic reperfusion. Measured parameters were heart rate and incidence of reperfusion-induced ventricular fibrillation (VF) and ventricular tachycardia (VT). Epicardial electrocardiogram was recorded throughout the experimental protocol to determine heart rate, VF and VT according to the Lambeth conventions (Walker et al., Cardiovasc Res. 1988; 22: 447-455) as described (Csonka et al., 2003; J Cardiovasc Pharmacol 41: 916-922; Ferdinandy et al., Cardiovasc Res. 1995; 58: 663-670.). Recording and evaluation of the ECG was performed using the SPEL Advanced Isosys system (Experimetria Ltd, Budapest, Hungary). Experimental groups were designed as follows: control, solvent (DMSO 500 μL/L), compound of formula IV at 1 μM (+DMSO 500 μL/L), compound of formula IV at 10 μM (+DMSO 500 μL/L), positive control: nifedipine at 0.5 μM (+DMSO 500 μL/L). Animals were randomly assigned to the different groups, however, perfusions were done in 4 parallel experiments within a group (n=12 in each group). The perfusion medium contained the drugs throughout the entire perfusion protocol in the treated groups. HR was compared to the solvent-treated group using ANOVA followed by Dunn's test. The incidence of VF and VT were compared with Chi^2 test in all groups, than each group was compared to the solvent-treated group using the Fischer's exact test.
# Compound of formula IV was tested at 10 μM (Compound of formula IV, 10 μM) and 1 μM (Compound of formula IV, 1 μM), nifedipine was tested at 0.5 μM. Chi^2 test followed by the Fischer's exact test. * p<0.05; ** p<0.01; ## p<0.01 (all groups compared to DMSO group)
SMILES,Duration VF (ventricular fibrillation) (isolated rat hearts [1]) [s],Duration VT (ventricular tachycardia) (isolated rat hearts [1]) [s],"Duration of all proarrhythmic events (VT, VF, extrasystolia and asystolia) (isolated rat hearts [1]) [s]",incidence of reperfusion-induced ventricular fibrillation (VF) (isolated rat hearts [2]; compared to DMSO group),incidence of reperfusion-induced ventricular tachycardia (VT) (isolated rat hearts [2]; compared to DMSO group),heart rate (HR) (isolated rat hearts [2]; compared to solvent-treated group)
"CC1CNc2c(cccc2S(=O)(=O)N[C@@H](CCCNC(=N)N)C(=O)N2CC[C@@H](C)C[C@@H]2C(=O)O)C1 (stereo partly drawn) [Argatroban, argatroban, reference compound]",583.6 ± 228.6,828.7 ± 233.7,1731.0 ± 445.0,,,
N=C(N)c1cccc(CN(NS(=O)(=O)c2ccc3ccccc3c2)C(=O)N2CCCCCC2)c1 [Compound IV],78.6 ± 42.6,87.2 ± 53.3,353.3 ± 148.1,concentration-dependently decreased,not significantly changed,not significantly changed
N=C(N)c1cccc(CN(NS(=O)(=O)Cc2ccccc2F)C(=O)N2CCCCCC2)c1 [Compound VI],596.0 ± 469.4,99.5 ± 77.95,810.2 ± 461.4,,,
N/C(=N\O)c1cccc(CN(NS(=O)(=O)c2ccc3ccccc3c2)C(=O)N2CCCCCC2)c1 [Compound V],149.3 ± 86.4,60.0 ± 30.8,278.3 ± 104.2,,,
